# Data: US20250327029A1, “PROCESS FOR THE OBTENTION OF INVARIANT NATURAL KILLER T CELLS” (Université de Lorraine, priority 2022, published 2025)
# System: CD4^− iNKT cells
# Test: Expansion of iNKT cells from PBMC cultured with alpha-GalCer and a cytokine (IL-15 or IL-2)
# Type: cell-based, human
# Procedure: The expansion factor of iNKT cells is more preferably comprised between 100 and 10 000. The “expansion factor” corresponds to the number of iNKT cells obtained at day 14 of expansion divided by the number of iNKT cells put in culture at day 0. The number of cells is determined by routinely used techniques by the skilled person (cell couting and flow cytometry staining to determine the percentage of iNKT cells among total PBMCs).
# PBMC obtained by centrifugation of fresh whole blood on density gradient were culture at the concentration of 5.10^5 cells/mL in RPMI 1640 advanced medium (ref: 11530446, Gibco®), with 5% SVF v/v, 4 mM glutamine, 100 ng/mL alpha-galactoside-ceramide (KRN-7000, Funakoshi). Cultures were performed in a cell culture bag in a normoxia incubator at 37° C. and 5% CO2.
# On day 1 of culture, 10 ng/mL of IL-15 were added.
# On day 7 of culture, 50% of the medium was changed and 10 ng/mL of IL-15 were introduced.
# On day 10 of the culture, 50% of the medium was changed and 10 ng/mL of IL-15 were introduced.
# On day 14 of the culture, the obtained iNKT cells were sorted by performing a magnetic CD4^+ cell isolation (CD4 MicroBeads kit commercialized by Miltenyi Biotec Inc.), retrieving the negative fraction, performing a magnetic iNKT^+ isolation on said fraction (Anti-iNKT MicroBeads kit commercialized by Miltenyi Biotec Inc.) and retrieving the positive fraction corresponding to the isolated CD4^− iNKT cell population.
substance,measurement,setting,value
IL-15: human cytokine that stimulates the proliferation of T-lymphocytes; Uniprot P40933,mean % CD4^− iNKT cells±SEM,"D14 of culture, n=14",60.6±5.23%
same,mean expansion factor of CD4^− iNKT cells±SEM,"cytokine present during expansion phase, n=17, cells at day 14 / cells at day 0",652±128
same,CD4^− iNKT cells among the expanded iNKT cells,"end of 14-day culture, healthy donor PBMC",61%
same,percentage of iNKT cells at the end of the 14-day culture (% among total T lymphocytes),"healthy donor PBMC, 0.82% iNKT at D0",81.5%
